# From US20050106213A1, “Resorption-controlled bone implants” (priority 2001, published 2005)
# Experiments:
# [1] = tested on: osteoclast proton pump; experiment: Calcibon cement rods doped with Panto IV implanted in femur of young Wistar rats, histology; type: in vivo, rat; conditions: 4 mg Panto IV per mL neutral phosphate solution per 500 mg Calcibon, 10 days
# Method: Experiments with a commercially available proton pump inhibitor, sodium pantoprazole sold as Panto IV®, were performed in healthy young Wistar rats.
# Although Panto IV is highly specific for the proton pumps of the parietal cells, it was hypothesized that it may non-specifically affect other proton pumps, including the osteoclast proton pump. A commercially available calcium phosphate material, Calcibon, was also used which is less resorbable than the previously used CAP to determine whether the strategy for stimulating local bone mass can be used with other materials.
# The CAP material used was Calcibon provided by the Merck Biomaterials/Biomet company. The concentration used was 4 mg Panto IV per/mL of neutral phosphate solution per 500 mg of CAP powder used to prepare the cement. The cement doped with the PPI was then allowed to set, as described previously. The pre-set rods were implanted in young Wistar rats according to the same procedure as described previously.
# [2] = tested on: osteoclasts; experiment: Bafilomycin-doped CAP implant rods in young and non-ovx aged Brown Norway rats (comparison groups), histology; design: species or system rat; conditions: young control group and non-ovx aged group; observed even at 4 months in vivo
# Text: Ten-month old ovariectomized (ovx) virgin Brown Norway rats with were purchased from the National Institute on Aging (Bethesda, Md., USA), housed individually in light- and temperature-controlled rooms, and fed a restricted diet (6 pellets/day). These animals were kept for additional four months following the ovariectomy. Non-ovx virgin Brown Norway rats of the same age as the experimental rats at the time of implantation (fourteen months) were used as a control group for the ovx animals. Young virgin female Brown Norway rats (three months old) were used as another comparison group to assess the implant integration and resorption. The maintenance and use of animals were in accordance with the Canadian Council of Animal Care Guidelines.
# Production of the CAP implant doped with bafilomycin was performed as described above, i.e., resorbable CAP based on the TTCP and DCPA chemistry. Bafilomycin in concentration of 75-100 μg per 250 μL of liquid neutral phosphate phase per 500 mg of CAP was used.
# The implants were allowed to set to form pre-hardened implant rods. The implants were retrieved at 10 days, 1 month, 2 months, and 4 months post-surgery.
# [3] = Solubility of Bafilomycin A1 in solvent for liquid phase preparation; type: physicochemical; conditions: at 2.0×10^−3 M
# Text: (§1) Bafilomycin A1 was first dissolved in DMSO solution (other solutions that can be used are methanol and ethanol), and then dispersed in a neutral phosphate solution (pH 7.4) prepared from Na2HPO4 and NaH2PO4.
# [4] = tested on: osteoclasts; experiment: Bafilomycin-doped CAP implant rods in ovariectomized aged rats (model of osteoporosis), histology; type: in vivo, rat; conditions: ovx aged Brown Norway rats, 75-100 μg per 500 mg CAP
# Method: Performance of the bafilomycin-doped implant was also assessed in a model of osteoporosis which utilizes ovarectomized aged rats. Successful integration of osseous implants with host bone tissue can be adversely affected by pathological bone conditions such as osteoporosis, which result in osteopenia due to disturbance of the balance between bone resorption and bone formation processes. Therefore, systemic bone loss due to estrogen deficiency may also affect bone growth and maintenance around the implants. Although current attention has been focused in the art on systemic fracture prevention and development of new therapies aimed at conserving bone mass, little emphasis has been given to increasing osteointegration of implants in osteoporotic defect site.
# The effects of ovariectomy on bone tissue formation and resorption of proton pump inhibitor (Bafilomycin A1)—modified resorbable CAP cement implants in comparison to the controls were studied.
# Ten-month old ovariectomized (ovx) virgin Brown Norway rats with were purchased from the National Institute on Aging (Bethesda, Md., USA), housed individually in light- and temperature-controlled rooms, and fed a restricted diet (6 pellets/day). These animals were kept for additional four months following the ovariectomy. […]
# [5] = tested on: osteoclasts; experiment: CAP cement rods or pastes doped with Bafilomycin A1 implanted in rat femur defects, histology; type: in vivo
# Text: The calcium phosphate precursor powder consisted of an equimolar mixture of DCPA and TTCP sterilized by gamma irradiation (20 kGy). Deionized double distilled water was obtained from a Millipore Milli-RO 10 Plus and Mill-Q UF Plus systems (Bedford, Mass., USA) operated at 18 MΩ resistance. The liquid phase was a neutral sodium hydrogen phosphate solution at pH 7.4, which was sterilized by filtration through 0.22 μm filters (Millipore Corp., Bedford, Mass., USA).
# as §1
# After Bafilomycin A1 was dispersed in the biphasic liquid phase, the liquid phase was added to one of the solid components of the CAP, dicalcium phosphate anhydrous (DCPA). The DCPA was dissolved in the liquid phase and left at room temperature for 2 min with continuous mixing.
# Next, tetracalcium phosphate (TTCP) was gradually added to the first dissolved CAP component to produce a paste. The powder to liquid ratio (P/L) of the final CAP was 2.0 (wt/wt).
# The pastes were either implanted or used for the preparation of rods. Cement rods (1.9 mm diameter×2.3 mm height) were shaped by allowing aliquots of packed CPC pastes to set in custom made Teflon® formers for 24 h at 37C and 100% humidity and subsequently for 48 h at room temperature.
# Young male Wistar rats with an average body weight of 125-150 g were purchased from Charles River (QC, Canada), housed in light- and temperature-controlled rooms, and fed a standard diet. The maintenance and use of animals were in accordance with the Canadian Council of Animal Care Guidelines.
# Bone defects were drilled in the mid-diaphysis of the femur. The holes were made using a low speed dental drill (2.3 mm in diameter) with copious saline irrigation. Pre-hardened CPC rods were placed into the holes using gentle pressure. Every rat received two implants, a control rod (paste) in one femur and a rod (paste) containing Bafilomycin A1 in another femur. The animals were observed daily throughout the implantation period.
# After desired time in vivo, the animals were sacrificed, and the femurs were removed. The femurs were then exposed to a fixative solution for 48 h, decalcified in a 1:1 mixture of 45% formic acid and 20% sodium citrate, dehydrated and embedded in low-melting-point paraffin. Serial sections (6 μm thick) perpendicular to the long axis of the implant were obtained using a hard tissue Spencer 820 microtome. Sample sections were stained with hematoxylin-eosin (H&E) and Mason's trichrome stains. Representative sections were also tested for the presence of tartrate resistant acid phosphatase (TRAP) enzyme, characteristic of osteoclasts, to determine the identity of the cells at the material/bone interface.
SMILES,reparative bone mass surrounding the implant versus control [1],bone formation around the material doped with PPI (trend) [2],resorption of the material doped with PPI (trend) [2],solubility in DMSO [3],resorption of implant in comparison to control material ([4]; throughout 4-month in vivo period),local bone mass around implant ([4]; up to 4 months),"control of CAP cement resorption (dose range study outcome) ([5]; 1.61×10^−4 M Bafilomycin A1 in liquid phase (DMSO solvent), rat femur implant)","amount of new bone surrounding the implant versus control cement ([5]; 1.61×10^−4 M, all specimens studied, young male Wistar rats)","resorption rate of CAP cement in comparison to controls ([5]; 1.61×10^−4 M, histology, young male Wistar rats)","formation of osteoclastic cutting cones into the material ([5]; 1.61×10^−4 M, tissue/material interface)","density of new bone surrounding the cement versus control ([5]; 1.61×10^−4 M, young male Wistar rats)","bone healing around the implant ([5]; highest concentration 2.0×10^−3 M Bafilomycin A1 in liquid phase (methanol solvent), rat femur implant)","response of CAP implanted as paste (resorption, new bone) ([5]; injectable paste, 14 days after implantation, rat femur)","histology / resorption of cement versus control ([5]; lowest concentration 1.61×10^−5 M Bafilomycin A1 in liquid phase (DMSO solvent), rat femur implant)"
"COc1ccnc(Cc2nc3cc(OC(F)F)ccc3[nH]2)c1OC [Panto IV, 5-difluoromethoxy-2-[(3,4-dimethoxy-2-pyridinyl)methyl]-1H-benzimidazole]",surrounded by higher reparative bone mass than the control,,,,,,,,,,,,,
CO/C1=C\C(C)=C\[C@@H](C)[C@@H](O)[C@@H](C)C/C(C)=C/C=C/[C@H](OC)[C@@H]([C@@H](C)[C@@H](O)[C@H](C)[C@@]2(O)C[C@@H](O)[C@H](C)[C@@H](C(C)C)O2)OC1=O [Bafilomycin A1],,increased bone formation,reduced resorption,solubility of Bafilomycin A1 in DMSO was exceeded,reduction of the resorption,increased local bone mass,found to work very well,consistently surrounded by more bone than the control cements,decreased the resorption rate,did not form “cutting cones”,appeared to be denser than the bone around the controls,the bone would not heal around the implant,showed the same response as that observed for the pre-set cements,did not differ in histology
